What was measured:
bedstraw = test: Test B pre/postemergence bedstraw; type: in vivo, Galium aparine
Procedure, shortened: (§1)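 Response is a visual 0-to-10 score relative to untreated plants, where 0 means no effect and 10 means complete control, taken twelve to sixteen days after application. Treatments went onto soil at planting and onto foliage of 1- to 4-leaf plants, using a surfactant-containing non-phytotoxic solvent.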

blackgrass = test: Test B pre/postemergence blackgrass; type: in vivo, Alopecurus myosuroides
Procedure, shortened: as §1

surinam grass = test: Test B pre/postemergence surinam grass; type: in vivo, Brachiaria decumbens
Procedure, shortened: as §1

cocklebur = test: Test B pre/postemergence cocklebur; type: in vivo, Xanthium strumarium
Procedure, shortened: as §1

corn = test: Test B pre/postemergence corn; type: in vivo, Zea mays
Procedure, shortened: as §1

crabgrass = test: Test B pre/postemergence crabgrass; type: in vivo, Digitaria sanguinalis
Procedure, shortened: as §1

giant foxtail = test: Test B pre/postemergence giant foxtail; type: in vivo, Setaria faberii
Procedure, shortened: as §1

morningglory = test: Test B pre/postemergence morningglory; type: in vivo, Ipomoea hederacea
Procedure, shortened: as §1

pigweed = test: Test B pre/postemergence pigweed; type: in vivo, Amaranthus retroflexus
Procedure, shortened: as §1

rape = test: Test B pre/postemergence rape; type: in vivo, Brassica napus
Procedure, shortened: as §1

soybean = test: Test B pre/postemergence soybean; type: in vivo, Glycine max
Procedure, shortened: as §1

sugar beet = test: Test B pre/postemergence sugar beet; type: in vivo, Beta vulgaris
Procedure, shortened: as §1

velvetleaf = test: Test B pre/postemergence velvetleaf; type: in vivo, Abutilon theophrasti
Procedure, shortened: as §1

wheat = test: Test B pre/postemergence wheat; type: in vivo, Triticum aestivum
Procedure, shortened: as §1

wild oat = test: Test B pre/postemergence wild oat; type: in vivo, Avena fatua
Procedure, shortened: as §1

purple nutsedge = test: Test B pre/postemergence purple nutsedge; type: in vivo, Cyperus rotundus; conditions: Postemergence; for Nutsedge plant response rating: 10 is complete control; for Plant response rating, Nutsedge: scale of 0 to 10 where 0 is no effect and 10 is complete control
Procedure, shortened: as §1

[1] = Postemergence, Rate 125 g/ha, scale 0 to 10, 0 is no effect, 10 is complete control
[2] = Postemergence, Rate 500 g/ha, scale of 0 to 10 where 0 is no effect and 10 is complete control
[3] = Preemergence, Rate 62 g/ha, scale 0 to 10 (0 no effect, 10 complete control)
[4] = Preemergence, Rate 125 g/ha, scale 0 to 10, 0 is no effect, 10 is complete control
[5] = Preemergence, Rate 500 g/ha, scale of 0 to 10 where 0 is no effect and 10 is complete control
[6] = Rate 250 g/ha, Postemergence, scale of 0 to 10 where 0 is no effect and 10 is complete control
[7] = Postemergence, Rate 62 g/ha, scale of 0 to 10, 0 is no effect, 10 is complete control

CC(C)N(C(=O)n1oc(=O)n(CCCF)c1=O)c1ccccc1 [Compound 559]
7: Blackgrass plant response rating (blackgrass; [7]) | Blackgrass plant response rating (blackgrass; [1]) | Plant response rating, Blackgrass (blackgrass; [2]) | Plant response rating, Blackgrass (blackgrass; [6]) | Plant response rating, Corn (corn; [2]) | Redroot pigweed plant response rating (pigweed; [3]) | Rape plant response rating (rape; [3])
5: Crabgrass plant response rating (crabgrass; [7]) | Plant response rating, Soybean (soybean; [6]) | Plant response rating, Wild oats (wild oat; [2])
10: Blackgrass plant response rating (blackgrass; [4]) | Blackgrass plant response rating (0 to 10 scale) (blackgrass; Preemergence, Rate 250 g/ha) | Blackgrass plant response rating (blackgrass; [5]) | B. signalgrass plant response rating (surinam grass; [4]) | Crabgrass plant response rating (crabgrass; [4]) | Crabgrass plant response rating (0 to 10 scale) (crabgrass; Preemergence, Rate 250 g/ha) | Crabgrass plant response rating (crabgrass; [5]) | Giant foxtail plant response rating (giant foxtail; [3]) | Giant foxtail plant response rating (giant foxtail; [4]) | Giant foxtail plant response rating (0 to 10 scale) (giant foxtail; Preemergence, Rate 250 g/ha) | Giant foxtail plant response rating (giant foxtail; [5]) | Morningglory plant response rating (morningglory; [1]) | Plant response rating, Morningglory (morningglory; [2]) | Redroot pigweed plant response rating (pigweed; [4]) | Redroot pigweed plant response rating (0 to 10 scale) (pigweed; Preemergence, Rate 250 g/ha) | Redroot pigweed plant response rating (pigweed; [5]) | Rape plant response rating (0 to 10 scale) (rape; Preemergence, Rate 250 g/ha) | Rape plant response rating (rape; [5])
6: Corn plant response rating (0 to 10 scale) (corn; Preemergence, Rate 250 g/ha) | Corn plant response rating (corn; [5]) | Plant response rating, Corn (corn; [6]) | Plant response rating, Soybean (soybean; [2]) | Sugarbeets plant response rating (sugar beet; [4]) | Velvetleaf plant response rating (0 to 10 scale) (velvetleaf; Preemergence, Rate 250 g/ha)
8: B. signalgrass plant response rating (surinam grass; [3]) | Morningglory plant response rating (morningglory; [5]) | Plant response rating, Redroot pigweed (pigweed; [2]) | Plant response rating, Sugarbeets (sugar beet; [2]) | Wheat plant response rating (wheat; [4])
4: Plant response rating, Bedstraw (bedstraw; [2]) | B. signalgrass plant response rating (surinam grass; [7]) | Crabgrass plant response rating (crabgrass; [1]) | Morningglory plant response rating (0 to 10 scale) (morningglory; Preemergence, Rate 250 g/ha) | Soybean plant response rating (soybean; [7]) | Velvetleaf plant response rating (velvetleaf; [4]) | Plant response rating, Wild oats (wild oat; [6])
2: Plant response rating, Cocklebur (cocklebur; [2]) | Cocklebur plant response rating (cocklebur; [5]) | Corn plant response rating (corn; [3]) | Morningglory plant response rating (morningglory; [4]) | Plant response rating, Rape (rape; [2]) | Plant response rating, Rape (rape; [6]) | Soybean plant response rating (soybean; [4]) | Plant response rating, Sugarbeets (sugar beet; [6]) | Plant response rating, Velvetleaf (velvetleaf; [6]) | Wheat plant response rating (wheat; [7]) | Plant response rating, Wheat (wheat; [6]) | Wild oats plant response rating (wild oat; [7]) | Plant response rating, Nutsedge (purple nutsedge; Rate 500 g/ha) | Plant response rating, Nutsedge (purple nutsedge; Rate 250 g/ha)
0: Bedstraw plant response rating (bedstraw; [1]) | Bedstraw plant response rating (bedstraw; [3]) | Bedstraw plant response rating (bedstraw; [4]) | Bedstraw plant response rating (0 to 10 scale) (bedstraw; Preemergence, Rate 250 g/ha) | Bedstraw plant response rating (bedstraw; [5]) | Plant response rating, Bedstraw (bedstraw; [6]) | Cocklebur plant response rating (cocklebur; [7]) | Cocklebur plant response rating (cocklebur; [1]) | Cocklebur plant response rating (cocklebur; [3]) | Cocklebur plant response rating (cocklebur; [4]) | Cocklebur plant response rating (0 to 10 scale) (cocklebur; Preemergence, Rate 250 g/ha) | Plant response rating, Cocklebur (cocklebur; [6]) | Corn plant response rating (corn; [7]) | Corn plant response rating (corn; [1]) | Morningglory plant response rating (morningglory; [3]) | Redroot pigweed plant response rating (pigweed; [7]) | Rape plant response rating (rape; [7]) | Rape plant response rating (rape; [1]) | Soybean plant response rating (soybean; [3]) | Sugarbeets plant response rating (sugar beet; [7]) | Velvetleaf plant response rating (velvetleaf; [7]) | Nutsedge plant response rating (purple nutsedge; Rate 62 g/ha, scale of 0 to 10, 0 is no effect) | Nutsedge plant response rating (purple nutsedge; Rate 125 g/ha, scale 0 to 10, 0 is no effect)
9: Blackgrass plant response rating (blackgrass; [3]) | B. signalgrass plant response rating (surinam grass; [1]) | Plant response rating, B. signalgrass (surinam grass; [2]) | B. signalgrass plant response rating (0 to 10 scale, 0 is no effect, 10 is complete control) (surinam grass; Preemergence, Rate 250 g/ha) | B. signalgrass plant response rating (surinam grass; [5]) | Plant response rating, B. signalgrass (surinam grass; [6]) | Plant response rating, Crabgrass (crabgrass; [2]) | Crabgrass plant response rating (crabgrass; [3]) | Plant response rating, Crabgrass (crabgrass; [6]) | Giant foxtail plant response rating (giant foxtail; [7]) | Giant foxtail plant response rating (giant foxtail; [1]) | Plant response rating, Giant foxtail (giant foxtail; [2]) | Plant response rating, Giant foxtail (giant foxtail; [6]) | Morningglory plant response rating (morningglory; [7]) | Plant response rating, Morningglory (morningglory; [6]) | Rape plant response rating (rape; [4]) | Sugarbeets plant response rating (0 to 10 scale) (sugar beet; Preemergence, Rate 250 g/ha) | Sugarbeets plant response rating (sugar beet; [5]) | Velvetleaf plant response rating (velvetleaf; [5]) | Wheat plant response rating (0 to 10 scale) (wheat; Preemergence, Rate 250 g/ha) | Wheat plant response rating (wheat; [5]) | Wild oats plant response rating (wild oat; [4]) | Wild oats plant response rating (0 to 10 scale) (wild oat; Preemergence, Rate 250 g/ha) | Wild oats plant response rating (wild oat; [5])
3: Corn plant response rating (corn; [4]) | Plant response rating, Redroot pigweed (pigweed; [6]) | Soybean plant response rating (0 to 10 scale) (soybean; Preemergence, Rate 250 g/ha) | Soybean plant response rating (soybean; [5]) | Sugarbeets plant response rating (sugar beet; [3]) | Plant response rating, Velvetleaf (velvetleaf; [2]) | Velvetleaf plant response rating (velvetleaf; [3]) | Plant response rating, Wheat (wheat; [2]) | Wheat plant response rating (wheat; [3])
